# Marks after values point to notes of the source that are not given here.
# Legend:
# [1] = tested on: E. huxleyi; experiment: CPP translocation by flow cytometry; format: cell-based, Emiliania huxleyi; settings: for FITC-positive cells / FITC-positive cells achieved over the range tested: titer experiment, flow cytometry, average of 2 experiments; for FITC-positive cells achieved over the range tested: 20 to 320 µM CPP
# [2] = tested on: I. galbana; experiment: CPP translocation by flow cytometry; format: cell-based, Isochrysis galbana; settings: for translocation (FITC-positive cells) / percentage of cells penetrated (FITC-positive): DOE, trypsin wash; for translocation (FITC-positive cells): FITC-Ahx-CPP 2 µM; for translocation (FITC-positive cells) / percentage of cells penetrated (FITC-positive) / FITC-positive cells achieved over the range tested / FITC-positive cells: flow cytometry; for percentage of cells penetrated (FITC-positive): FITC-Ahx-CPP 10 µM; for FITC-positive cells achieved over the range tested / FITC-positive cells: titer experiment, single experiment; for FITC-positive cells achieved over the range tested: 20 to 320 µM CPP
# [3] = tested on: G. oceanica; experiment: CPP translocation by flow cytometry; format: cell-based, Gephyrocapsa oceanica; settings: for increase in median fluorescence per increase in concentration of 1 µM: regression of titer data, FITC-positive population; for increase in median fluorescence per increase in concentration of 1 µM / regression equation, Median Fluorescence versus CPP concentration: separate experiment; for regression equation, Median Fluorescence versus CPP concentration: titer data 20-320 µM, flow cytometry ex 488 / em 525 nm
# [4] = tested on: I. galbana; experiment: Viability / cell proliferation after CPP transfection; format: cell-based, Isochrysis galbana; settings: growth curve 14 days
# [5] = tested on: algae; settings: ref [7],[8],[23]; cited from earlier work
# [6] = tested on: animal cells; settings: ref [7],[8],[23]; cited from earlier work
# [7] = titer data 20-320 µM, separate experiment, flow cytometry ex 488 / em 525 nm
Sequence,FITC-positive cells ([1]; 20 µM CPP),FITC-positive cells ([1]; 160 µM CPP),FITC-positive cells ([1]; 320 µM CPP),FITC-positive cells achieved over the range tested [1],translocation (FITC-positive cells) [2],percentage of cells penetrated (FITC-positive) [2],FITC-positive cells achieved over the range tested [2] [%],increase in median fluorescence per increase in concentration of 1 µM [3] [RFU],"regression equation, Median Fluorescence versus CPP concentration [3]",further results
"GRKKRRQRRRPPQ [TAT, transactivating transcriptional activator]",less than 20%,over 40%,over 60%,< 80%,do not translocate,do not translocate,< 20,53,10953 + 52.48 * TAT concentration,"regression equation, Median Fluorescence versus CPP concentration [1, 7]: 15145 + 35.47 * TAT concentration; regression equation, Median Fluorescence versus CPP concentration [2, 7]: 16534 + 11.73 * TAT concentration"
"LLIILRRRIRKQAHAHSK [pVEC, murine vascular endothelial cadherin]",> 80%,more than 90%,over 95%,more than 80%,,39%,80,184,16133 + 184.1 * pVEC concentration,"effect on median fluorescence with rising concentration ([1]; titer experiment 20-320 µM): reaches a plateau from 160 to 320 µM; optimal concentration for translocation, irrespective of viability ([1]; titer experiment 20-320 µM): 160 µM; proliferation of cells sorted for high FITC fluorescence ([4]; 160 and 320 µM pVEC, sorted by FACS): proliferation of viable cells; viability after CPP treatment ([4]; pVEC at 20 µM, sorted cells): apparent decrease in viability; optimal concentration for translocation, irrespective of viability ([2]; titer experiment 20-320 µM): 80 µM; FITC-positive cells ([2]; 20 µM CPP): less than 20%; FITC-positive cells ([2]; 80 µM CPP): over 90%; FITC-positive cells ([2]; 160 µM CPP): approximately 85%; optimal concentration for translocation, irrespective of viability ([3]; titer experiment 20-320 µM): 160 µM; percent-positive achieved over the range tested ([3]; titer experiment, 20 to 320 µM CPP, flow cytometry, average of 2 experiments): more than 80%"
"RQIKIWFQNRRMKWKK [pAntp, antennapedia homeodomain]",,,,,do not translocate,,,,,cytotoxicity at concentrations as low as [5]: 10 µM; cytotoxicity at concentrations as low as [6]: 40 µM

# Reference: article doi:10.1101/2024.12.16.628703v1 (bioRxiv, 2024)
